Measurements published in patent US20040220086A1, “Methods and materials for targeting and affecting selected cells” (priority 2001, published 2004).

Key:
[1] = cited from earlier work
[2] = system: NADH-oxidase; conditions: plasma membrane redox enzyme; cited from earlier work
[3] = system: metastatic sarcoma; conditions: person, 2000 as printed
Experimental: This concerns a person with metastatic disease from a sarcoma of their right atrium who was treated beginning August, 2000 by using conventional protocols.

[4] = system: leukemic cells in peripheral blood; conditions: cited from earlier work
[5] = system: drug-resistant HL60 cells; conditions: cited from earlier work
[6] = system: human mesothelioma cells; conditions: cited from earlier work
[7] = system: drug-resistant K562 cells; conditions: cited from earlier work
[8] = system: normal or transferrin receptor-negative cells; conditions: cited from earlier work
[9] = system: leukemic cells; conditions: cells from peripheral blood and marrow of leukemia patients; cited from earlier work
[10] = nude mice; cited from earlier work

## O=C(O)CCCc1ccc(N(CCCl)CCCl)cc1 [chlorambucil]
[1]
  survival of treated mice: died

## COc1cccc2c1C(=O)c1c(O)c3c(c(O)c1C2=O)C[C@@](O)(C(=O)CO)C[C@@H]3O[C@H]1C[C@H](N)[C@H](O)[C@H](C)O1 [doxorubicin, reference compound]
[2]
  inhibition of NADH-oxidase: efficient inhibitor

## human transferrin-chlorambucil conjugates: human transferrin conjugated to chlorambucil, reference 51
[1]
  survival of treated mice: survived
[1]; mice
  toxicity compared with free chlorambucil: less toxic

## transferrin-doxorubicin conjugates
[3]; by January
  radiological evidence of tumor: no radiological evidence of tumor
[3]; treatment begun November 2000, by January
  metastatic lesions of the lungs: substantially cleared
[4]; 7 patients, within 10-days following therapy
  decrease of number of leukemic cells in peripheral blood: 86%
[4]; acute leukemia patients
  extension of disease by bone marrow biopsies before and after treatment: no extension of disease
[4]; seven acute leukemia patients, 1 mg/day intravenously for 5 days
  toxic effects: no toxic effects
[5]
  killing of cells resistant to doxorubicin: effective in killing
[6]; nude mice bearing drug-resistant human tumors
  survival compared with free doxorubicin: survive longer
[6]; nude mice, human mesothelioma cells
  life prolongation compared to animals treated only with doxorubicin: significantly prolonged life
[7]
  killing of cells resistant to doxorubicin: effective in killing
[8]
  binding to cells: do not bind
[2]
  inhibition of NADH-oxidase: inhibit
[9]
  selective killing of leukemic cells: kill selectively

B1: neocarzinostatin (protein, UniProt P0A3R9 35-147, looked up)
Neocarzinostatin: AAPTATVTPSSGLSDGTVVKVAGAGLQAGTAYDVGQCAWVDTGVLACNPADFSSVTADANGSASTSLTVRRSFEGFLFDGTRWGTVDCTTAACQVGLSDAAGNGPEGVAISFN
modifications: with enediyne chromophore
[10]
  half-life: 7 min
